Measurements as given in US5225607A, “Insecticidal ethers” (Imperial Chemical Industries PLC, priority 1985, dated 1993).

Experiments:
Assay type in all cases: in vivo
[1] = system: Myzus persicae; test: Insecticidal test, Myzus persicae (aphids), contact; conditions: 72 h, Chinese Cabbage leaf, 3 days, read-out: grading of mortality, MP
Experimental: (§1) The activity of the Product was determined using a variety of insect and acarine pests. The Product was used in the form of liquid preparations containing 500, 250 or 100 parts per million (ppm) by weight of the Product. The preparations were made by dissolving the Product in acetone and diluting the solutions with water containing 0.01% by weight of a wetting agent sold under the trade name "LISSAPOL" NX until the liquid preparations contained the required concentratio of the Product. "Lissapol" is a Registered Trade Mark.
(§2) The test procedure adopted with regard to each pest was basically the same and comprised supporting a number of the pests on a medium which was usually a host plant or a foodstuff on which the pests feed, and treating either or both the pests and the medium with the preparations. The mortality of the pests was then assessed at periods usually varying from one to three days after the treatment.
(§3) The results of the tests are given in Table IV for each of the Products, at the rate in parts per million given in the second column as a grading of mortality designated as A, B or C wherein A indicates 80-100% mortality or knockdown (70-100% in the case of Spodoptera exigua), B indicates 50-79% mortality or knockdown (50-69% in the case of Spodoptera exigua) and C indicates less than 50% mortality or knockdown.
(§4) In Table IV the pest organism used is designated by a letter code and the pest species, the support medium or food, and the type and duration of test is given in Table III.

[2] = system: Diabrotica balteata; test: Insecticidal test, Diabrotica balteata (rootworm larvae), residual; conditions: 72 h, filter paper/maize seed, 3 days, read-out: grading of mortality, DB
Experimental: as §1, §2, §3, §4

[3] = system: Tetranychus urticae; test: Insecticidal/acaricidal test, Tetranychus urticae (spider mites - adult), contact; conditions: 72 h, French bean leaf, 3 days, read-out: grading of mortality, TU
Experimental: as §1, §2, §3, §4

[4] = system: Musca domestica; test: Knockdown test, Musca domestica (houseflies - adults); conditions: cotton wool/sugar, 4 hours, read-out: grading of knockdown, MD/KD
Experimental: as §1, §2
In the case of the species Musca domestica (housefly), additional tests to determine the knockdown effect of the compounds were performed.
as §3, §4

[5] = system: Musca domestica; test: Insecticidal test, Musca domestica (houseflies - adults), contact; conditions: 24 h, cotton wool/sugar, 1 day, read-out: grading of mortality, MD
Experimental: as §1, §2, §3, §4

[6] = system: Blattella germanica; test: Insecticidal test, Blattella germanica (cockroach nymphs), residual; conditions: 72 h, plastic pot, 3 days, read-out: grading of mortality, BG
Experimental: as §1, §2, §3, §4

[7] = system: Nilaparvata lugens; test: Insecticidal test, Nilaparvata lugens (brown planthopper), contact; conditions: 72 h, Cabbage leaf, 3 days, read-out: grading of mortality, NL
Experimental: as §1, §2, §3, §4

[8] = system: Heliothis virescens; test: whole plant or invertebrate; conditions: in Gossypium hirsutum, 72 h, read-out: grading of mortality, HV
Experimental: as §1, §2, §3, §4

SMILES: CCOc1ccc(C(COCc2cccc(Oc3ccccc3)c2)C(F)(F)F)cc1 (stereo not drawn) [Compound 1, 1,1,1-trifluoro-2-(4-ethoxyphenyl)-3-(3-phenoxybenzyloxy)propane]
- mortality at 500 ppm [1]: 80 to 100%
- mortality at 500 ppm [2]: 80 to 100%
- mortality at 500 ppm [3]: 80 to 100%
- pest or weed control at 500 ppm [4]: 80 to 100%
- mortality at 500 ppm [5]: 80 to 100%
- mortality at 500 ppm [6]: 80 to 100%
- mortality at 500 ppm [7]: 80 to 100%
- mortality at 500 ppm [8]: 80 to 100%

SMILES: CCOc1ccc(C(COCc2c(F)c(F)c(C)c(F)c2F)C(F)(F)F)cc1 (stereo not drawn) [Compound 2, 1,1,1-Trifluoro-2-(4-ethoxyphenyl)-3-(4-methyl-2,3,5,6-tetrafluorobenzyloxy)propane]
- mortality at 500 ppm [1]: 50 to 79%
- mortality at 500 ppm [2]: 80 to 100%
- mortality at 500 ppm [3]: < 50%
- pest or weed control at 500 ppm [4]: < 50%
- mortality at 500 ppm [5]: 50 to 79%
- mortality at 500 ppm [6]: 80 to 100%
- mortality at 500 ppm [7]: 80 to 100%
- mortality at 500 ppm [8]: < 50%

SMILES: CCOc1ccc(C(COCc2cccc(Oc3ccc(Cl)cc3)c2)C(F)(F)F)cc1 (stereo not drawn) [Compound 3, 1,1,1-Trifluoro-2-(4-ethoxyphenyl)-3-(3-(4-chlorophenoxy)benzyloxy)propane]
- mortality at 250 ppm [1]: 80 to 100%
- mortality at 250 ppm [2]: 80 to 100%
- mortality at 250 ppm [3]: < 50%
- pest or weed control at 250 ppm [4]: 80 to 100%
- mortality at 250 ppm [5]: 80 to 100%
- mortality at 250 ppm [6]: 80 to 100%
- mortality at 250 ppm [7]: 80 to 100%
- mortality at 250 ppm [8]: < 50%

SMILES: CCOc1ccc(C(COCc2ccc(F)c(Oc3ccc(Cl)cc3)c2)C(F)(F)F)cc1 (stereo not drawn) [Compound 5, 1,1,1-Trifluoro-2-(4-ethoxyphenyl)-3-(3-(4-chlorophenoxy)4-fluorobenzyloxy)propane]
- mortality at 500 ppm [1]: 80 to 100%
- mortality at 500 ppm [2]: 80 to 100%
- mortality at 500 ppm [3]: 50 to 79%
- pest or weed control at 500 ppm [4]: 80 to 100%
- mortality at 500 ppm [5]: 80 to 100%
- mortality at 500 ppm [6]: 80 to 100%
- mortality at 500 ppm [7]: 80 to 100%
- mortality at 500 ppm [8]: 80 to 100%

SMILES: CCOc1ccc(C(COCc2ccc(F)c(Oc3ccc(Br)cc3)c2)C(F)(F)F)cc1 (stereo not drawn) [Compound 6, 1,1,1-Trifluoro-2-(4-ethoxyphenyl)-3-(3-(4-bromophenoxy)-4-fluorobenzyloxy)propane]
- mortality at 500 ppm [1]: 80 to 100%
- mortality at 500 ppm [2]: 80 to 100%
- mortality at 500 ppm [3]: 80 to 100%
- pest or weed control at 500 ppm [4]: 80 to 100%
- mortality at 500 ppm [5]: 80 to 100%
- mortality at 500 ppm [6]: 80 to 100%
- mortality at 500 ppm [7]: 80 to 100%
- mortality at 500 ppm [8]: 80 to 100%

SMILES: CCOc1ccc(C(COCc2cccc(-c3ccccc3)c2C)C(F)(F)F)cc1 (stereo not drawn) [Compound 7, 1,1,1-Trifluoro-2-(4-ethoxyphenyl)-3-(2-methyl-3-phenylbenzyloxy)propane]
- mortality at 500 ppm [1]: 80 to 100%
- mortality at 500 ppm [2]: 80 to 100%
- mortality at 500 ppm [3]: 80 to 100%
- pest or weed control at 500 ppm [4]: 80 to 100%
- mortality at 500 ppm [5]: 80 to 100%
- mortality at 500 ppm [6]: 80 to 100%
- mortality at 500 ppm [7]: 80 to 100%
- mortality at 500 ppm [8]: < 50%

SMILES: CCOc1ccc(C(COCc2cccc(Oc3ccc(Br)cc3)c2)C(F)(F)F)cc1 (stereo not drawn) [Compound 9, 1,1,1-Trifluoro-2-(4-ethoxyphenyl)-3-(3-(4-bromophenoxy)benzyloxy)propane]
- mortality at 250 ppm [1]: < 50%
- mortality at 250 ppm [2]: 80 to 100%
- mortality at 250 ppm [3]: 50 to 79%
- pest or weed control at 250 ppm [4]: 80 to 100%
- mortality at 250 ppm [5]: 80 to 100%
- mortality at 250 ppm [6]: 80 to 100%
- mortality at 250 ppm [7]: < 50%
- mortality at 250 ppm [8]: 80 to 100%

SMILES: FC(F)(F)C(COCc1cccc(Oc2ccccc2)c1)c1ccc(Cl)cc1 (stereo not drawn) [Compound 16, 1,1,1-Trifluoro-2-(4-chlorophenyl)-3-(3-phenoxybenzyloxy)propane]
- mortality at 100 ppm [1]: 80 to 100%
- mortality at 100 ppm [2]: 80 to 100%
- mortality at 100 ppm [3]: < 50%
- pest or weed control at 100 ppm [4]: 80 to 100%
- mortality at 100 ppm [5]: 80 to 100%
- mortality at 100 ppm [6]: 80 to 100%
- mortality at 100 ppm [7]: 80 to 100%
- mortality at 100 ppm [8]: 80 to 100%

SMILES: Fc1ccc(COCC(c2ccc3c(c2)CCC3)C(F)(F)F)cc1Oc1ccccc1 (stereo not drawn) [Compound 19, 1,1,1-Trifluoro-2-(5-indanyl)-3-(3-phenoxy-4-fluorobenzyloxy)propane]
- mortality at 250 ppm [1]: 80 to 100%
- mortality at 250 ppm [2]: 80 to 100%
- mortality at 250 ppm [3]: < 50%
- pest or weed control at 250 ppm [4]: 80 to 100%
- mortality at 250 ppm [5]: 80 to 100%
- mortality at 250 ppm [6]: 80 to 100%
- mortality at 250 ppm [7]: 80 to 100%
- mortality at 250 ppm [8]: 80 to 100%

SMILES: CCCc1ccc(C(COCc2ccc(F)c(Oc3ccccc3)c2)C(F)(F)F)cc1 (stereo not drawn) [Compound 20, 1,1,1-Trifluoro-2-(4-n-propylphenyl)-3-(3-phenoxy-4-fluorobenzyloxy)propane]
- mortality at 100 ppm [1]: 80 to 100%
- mortality at 100 ppm [2]: 80 to 100%
- mortality at 100 ppm [3]: 80 to 100%
- pest or weed control at 100 ppm [4]: 80 to 100%
- mortality at 100 ppm [5]: 80 to 100%
- mortality at 100 ppm [6]: 80 to 100%
- mortality at 100 ppm [7]: 80 to 100%
- mortality at 100 ppm [8]: 80 to 100%

SMILES: FC(F)(F)Oc1ccc(C(COCc2cccc(Oc3ccc(Cl)cc3)c2)C(F)(F)F)cc1 (stereo not drawn) [Compound 26, 1,1,1-Trifluoro-2-(4-trifluoromethoxyphenyl)-3-(3-(4-chlorophenoxy)benzyloxy)propane]
- mortality at 100 ppm [1]: 50 to 79%
- mortality at 100 ppm [2]: 80 to 100%
- mortality at 100 ppm [3]: 80 to 100%
- pest or weed control at 100 ppm [4]: 80 to 100%
- mortality at 100 ppm [5]: 80 to 100%
- mortality at 100 ppm [6]: 80 to 100%
- mortality at 100 ppm [7]: 80 to 100%
- mortality at 100 ppm [8]: 80 to 100%

SMILES: FC(F)(F)Oc1ccc(C(COCc2cccc(Oc3ccccc3)c2)C(F)(F)F)cc1 (stereo not drawn) [Compound 27, 1,1,1-Trifluoro-2-(4-trifluoromethoxyphenyl)-3-(3-phenoxybenzyloxy)propane]
- mortality at 100 ppm [1]: 80 to 100%
- mortality at 100 ppm [2]: 80 to 100%
- mortality at 100 ppm [3]: 80 to 100%
- pest or weed control at 100 ppm [4]: < 50%
- mortality at 100 ppm [5]: 80 to 100%
- mortality at 100 ppm [6]: 80 to 100%
- mortality at 100 ppm [7]: 80 to 100%
- mortality at 100 ppm [8]: 80 to 100%

SMILES: COc1ccc(C(COCc2ccc(F)c(Oc3ccccc3)c2)C(F)(F)F)cc1 (stereo not drawn) [Compound 29, 1,1,1-Trifluoro-2-(4-methoxyphenyl)-3-(3-phenoxy-4-fluorobenzyloxy)propane]
- mortality at 100 ppm [1]: 80 to 100%
- mortality at 100 ppm [2]: 80 to 100%
- mortality at 100 ppm [3]: < 50%
- pest or weed control at 100 ppm [4]: 80 to 100%
- mortality at 100 ppm [5]: 80 to 100%
- mortality at 100 ppm [6]: 80 to 100%
- mortality at 100 ppm [7]: 80 to 100%
- mortality at 100 ppm [8]: 80 to 100%

SMILES: COc1ccc(C(COCc2cccc(Oc3ccccc3)c2)C(F)(F)F)cc1 (stereo not drawn) [Compound 30, 1,1,1-Trifluoro-2-(4-methoxyphenyl)-3-(3-phenoxybenzyloxy)propane]
- mortality at 500 ppm [1]: < 50%
- mortality at 500 ppm [2]: 80 to 100%
- mortality at 500 ppm [3]: < 50%
- pest or weed control at 500 ppm [4]: 80 to 100%
- mortality at 500 ppm [5]: 80 to 100%
- mortality at 500 ppm [6]: 80 to 100%
- mortality at 500 ppm [7]: 80 to 100%
- mortality at 500 ppm [8]: 80 to 100%

SMILES: CCOc1ccc(C(O)(COCc2ccc(F)c(Oc3ccc(Br)cc3)c2)C(F)(F)F)cc1 (stereo not drawn) [Compound 116, 1,1,1-Trifluoro-2-(4-ethoxyphenyl)-3-(3-(4-bromophenoxy)-4-fluorobenzyloxy)propan-2-ol]
- mortality at 500 ppm [1]: < 50%
- mortality at 500 ppm [2]: < 50%
- mortality at 500 ppm [3]: 80 to 100%
- pest or weed control at 500 ppm [4]: 50 to 79%
- mortality at 500 ppm [5]: 50 to 79%
- mortality at 500 ppm [6]: < 50%
- mortality at 500 ppm [7]: < 50%

SMILES: OC(COCc1ccc(F)c(Oc2ccccc2)c1)(c1ccc(Cl)cc1)C(F)(F)F (stereo not drawn) [Compound 126, 1,1,1-Trifluoro-2-(4-chlorophenyl)-3-(3-phenoxy-4-fluorobenzyloxy)propan-2-ol]
- mortality at 500 ppm [1]: < 50%
- mortality at 500 ppm [2]: < 50%
- mortality at 500 ppm [3]: 80 to 100%
- pest or weed control at 500 ppm [4]: 80 to 100%
- mortality at 500 ppm [5]: < 50%
- mortality at 500 ppm [6]: < 50%
- mortality at 500 ppm [7]: < 50%
